Where two headings read alike, the source gives them in different places. Where only a bound is given, the exact number is not on record here.

The target of assay [1] is T1, human cannabinoid receptor type 2 (Homo sapiens, UniProt P34972).
T1 construct: expressed in transfected cells; membrane preparation
As to the kind of experiment: Human CB2 Radioligand Binding Assay. The conditions noted are these: membranes from stably transfected CHO CB2 cells. An outline of the steps: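 Filtration competition binding on membranes from CHO cells stably expressing human CB2, with [3H]CP-55,940 at its lot-specific Kd, in 50 mM Tris-HCl pH 7.4, EGTA, MgCl2, 5 mg/ml BSA, 1% DMSO; 90 min at 30° C. Compounds at 10 uM single point or dose-response; bound radioactivity by scintillation, 100 nM CP-55,940 as 100% efficacy.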

For assay [2], the target named is T2, human cannabinoid receptor type 1 (Homo sapiens, UniProt P21554).
T2 construct: purchased Perkin Elmer RBHCB1M; host or cells: HEK 293 EBNA cells
As to the kind of experiment: Human CB1 Radioligand Binding Assay (basis of selectivity, CB2 vs. CB1). The conditions noted are these: CB1: HEK 293 EBNA cells expressing human CB1; CB2: CHO CB2 membranes. On the procedure:
2. Human CB1 Radioligand Binding Assay
The incubation buffer was composed of 50 mM Tris-HCl pH 7.4, 2.5 mM EDTA, 5 mM MgCl2, 5.0 mg/ml fatty acid free BSA and the wash buffer was composed of 50 mM Tris-HCl pH 7.4, 2.5 mM EDTA, 5 mM MgCl2, 0.5 mg/ml fatty acid free BSA.

The mark [3] stands for this setting: competition with [3H] CP-55,940, read-out: CB2 Ligand Binding Asssay EC50.
The mark [4] stands for this setting: CB2 Ligand Binding Asssay EC50, competition with [3H] CP-55,940.

T1 sequence (P34972 whole entry): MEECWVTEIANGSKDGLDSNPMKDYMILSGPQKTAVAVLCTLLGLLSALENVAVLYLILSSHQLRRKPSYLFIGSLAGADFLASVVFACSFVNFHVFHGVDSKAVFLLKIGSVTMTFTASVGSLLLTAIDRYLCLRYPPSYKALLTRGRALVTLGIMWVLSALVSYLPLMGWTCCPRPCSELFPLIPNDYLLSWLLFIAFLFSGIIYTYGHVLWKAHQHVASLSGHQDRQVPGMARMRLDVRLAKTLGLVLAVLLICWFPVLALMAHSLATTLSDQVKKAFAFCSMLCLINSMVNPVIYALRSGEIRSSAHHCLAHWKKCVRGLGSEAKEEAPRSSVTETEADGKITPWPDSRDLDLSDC
T2 sequence (P21554 whole entry): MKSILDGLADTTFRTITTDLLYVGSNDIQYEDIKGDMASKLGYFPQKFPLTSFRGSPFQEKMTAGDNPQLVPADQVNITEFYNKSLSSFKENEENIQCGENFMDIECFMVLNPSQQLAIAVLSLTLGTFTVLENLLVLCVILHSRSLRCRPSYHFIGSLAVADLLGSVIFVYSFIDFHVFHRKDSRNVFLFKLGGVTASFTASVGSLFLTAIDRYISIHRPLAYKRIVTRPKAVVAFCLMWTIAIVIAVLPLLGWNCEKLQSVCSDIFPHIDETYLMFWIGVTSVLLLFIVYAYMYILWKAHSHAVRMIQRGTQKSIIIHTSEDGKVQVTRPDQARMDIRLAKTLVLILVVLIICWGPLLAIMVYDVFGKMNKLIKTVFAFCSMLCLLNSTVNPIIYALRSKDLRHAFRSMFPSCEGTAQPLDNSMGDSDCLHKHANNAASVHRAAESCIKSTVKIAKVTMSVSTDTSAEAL

In general, EC50 refers to the concentration that produces a half-maximal response. As to `CC(=O)N1CCN(c2nc(-c3ccccc3Cl)nc3cccc(F)c23)CC1` [Example 246, 1-(4-(2-(2-Chlorophenyl)-5-fluoroquinazolin-4-yl)piperazin-1-yl)ethanone], the half-maximal effective concentration (EC50) in assay [1] (setting [3]) was less than 1000 nM. The “Selectivity, CB2 vs. CB1” value in assay [2] was “+ (+ indicates > 10−fold)”.

For `C[C@@H]1CN(c2nc(-c3ccccc3Cl)nc3ccccc23)C[C@H](C)N1C` [Example 78, 2-(2-Chlorophenyl)-4-((3S,5R)-3,4,5-trimethylpiperazin-1-yl)quinazoline], the EC50 in assay [1] (setting [3]) is less than 1000 nM. For the same molecule, the “Selectivity, CB2 vs. CB1” value in assay [2] is reported as “− (− indicates ≦ 10−fold)”.

In the case of `CN1CCN(c2nc(-c3ccc(Cl)cc3)nc3ccc(OC(F)(F)F)cc23)CC1` [Example 225, 2-(4-Chlorophenyl)-4-(4-methylpiperazin-1-yl)-6-(trifluoromethoxy)quinazoline], the EC50 in assay [1] (setting [3]) is less than 1000 nM. Besides, the “Selectivity, CB2 vs. CB1” value in assay [2] is “+ (+ indicates > 10−fold)”.

As for `COC(=O)c1ccc2c(N3CCN(C(C)=O)CC3)nc(-c3ccccc3Cl)nc2c1` [Example 322, Methyl 4-(4-acetylpiperazin-1-yl)-2-(2-chlorophenyl)quinazoline-7-carboxylate], the EC50 in assay [1] (setting [4]) was greater than 1000 nM. The “Selectivity, CB2 vs. CB1” value in assay [2] is “− (− indicates ≦ 10−fold)”.

In the case of `CC(C)(C)c1ccc(Nc2nc(-c3ccc(F)c(F)c3)nc3ccccc23)cc1` [Example 20, N-(4-tert-Butylphenyl)-2-(3,4-difluorophenyl)quinazolin-4-amine], in assay [1] (setting [3]), the EC50 is less than 1000 nM. The “Selectivity, CB2 vs. CB1” value in assay [2] is recorded as “+ (+ indicates > 10−fold)”.

In turn, `CCN(CC)C(=O)c1ccc2nc(-c3ccccc3Cl)nc(N3CCOCC3)c2c1` [Example 315, 2-(2-Chlorophenyl)-N,N-diethyl-4-morpholinoquinazoline-6-carboxamide] showed a concentration for a half-maximal effect (EC50) in assay [1] (setting [4]) greater than 1000 nM. The “Selectivity, CB2 vs. CB1” value in assay [2] was “− (− indicates ≦ 10−fold)”.

As for `CC(=O)N1CCN(c2nc(-c3ccc(F)cc3F)nc3ccccc23)CC1` [Example 24, 1-(4-(2-(2,4-Difluorophenyl)quinazolin-4-yl)piperazin-1-yl)ethanone], the EC50 in assay [1] (setting [3]) was less than 1000 nM. Besides, the “Selectivity, CB2 vs. CB1” value in assay [2] is “− (− indicates ≦ 10−fold)”.

Regarding `Clc1ccc(-c2nc(N3CCSCC3)c3cc(Cl)ccc3n2)cc1` [Example 211, 4-(6-Chloro-2-(4-chlorophenyl)quinazolin-4-yl)thiomorpholine], the EC50 in assay [1] (setting [3]) was greater than 1000 nM. Besides, the “Selectivity, CB2 vs. CB1” value in assay [2] is “− (− indicates ≦ 10−fold)”.

On to `CCOC(=O)N1CCN(c2nc(-c3ccccc3F)nc3cccc(F)c23)CC1` [Example 281, Ethyl 4-(5-fluoro-2-(2-fluorophenyl)quinazolin-4-yl)piperazine-1-carboxylate], for which the concentration giving a half-maximal response (EC50) in assay [1] (setting [3]) was less than 1000 nM. For the same molecule, in assay [2], the “Selectivity, CB2 vs. CB1” value is listed as “+ (+ indicates > 10−fold)”.

For the molecule `Clc1ccc2c(N3CCCC3)nc(-c3ccccc3Cl)nc2c1` [Example 235, 7-Chloro-2-(2-chlorophenyl)-4-(pyrrolidin-1-yl)quinazoline], the half-maximal effective concentration (EC50) in assay [1] (setting [4]) is greater than 1000 nM. For the same molecule, the “Selectivity, CB2 vs. CB1” value in assay [2] was “− (− indicates ≦ 10−fold)”.

For the molecule `CC(C)c1nc(N2CCCCC2)c2ccccc2n1` [Example 146, 2-Isopropyl-4-piperidin-1-ylquinazoline], in assay [1] (setting [3]), the EC50 was greater than 1000 nM. In addition, in assay [2], the “Selectivity, CB2 vs. CB1” value is “− (− indicates ≦ 10−fold)”.

`COc1ccc2nc(-c3ccc(C(C)(C)C)cc3)nc(N3CCCC3)c2c1` [Example 251, 2-(4-tert-Butylphenyl)-6-methoxy-4-(pyrrolidin-1-yl)quinazoline]: the EC50 in assay [1] (setting [3]) is less than 1000 nM. In addition, in assay [2], the “Selectivity, CB2 vs. CB1” value was “+ (+ indicates > 10−fold)”.

As to `CN(CC1CCCCC1)c1nc(-c2ccccc2Cl)nc2ccccc12` [Example 194, 2-(2-Chlorophenyl)-N-(cyclohexylmethyl)-N-methylquinazolin-4-amine], in assay [1] (setting [3]), the EC50 is less than 1000 nM. The “Selectivity, CB2 vs. CB1” value in assay [2] was “− (− indicates ≦ 10−fold)”.

Take `O=C(NCc1nc(N2CCCC2)c2ccccc2n1)Nc1ccc(Cl)cc1Cl` [Example 10, 1-(2,4-Dichlorophenyl)-3-((4-(pyrrolidin-1-yl)quinazolin-2-yl)methyl)urea]: the EC50 in assay [1] (setting [3]) is greater than 1000 nM. Moreover, in assay [2], the “Selectivity, CB2 vs. CB1” value was “+ (+ indicates > 10−fold)”.

Regarding `CC(C)c1nc(N2CCCC2)c2ccccc2n1` [Example 145, 2-Isopropyl-4-pyrrolidin-1-ylquinazoline], in assay [1] (setting [3]), the EC50 is greater than 1000 nM. Moreover, in assay [2], the “Selectivity, CB2 vs. CB1” value is given as “− (− indicates ≦ 10−fold)”.

`CC(=O)N1CCN(c2nc(C3CCCCC3)nc3ccc(Cl)cc23)CC1` [Example 185, 1-(4-(6-Chloro-2-cyclohexylquinazolin-4-yl)piperazin-1-yl)ethanone]: the EC50 in assay [1] (setting [3]) was less than 1000 nM. The “Selectivity, CB2 vs. CB1” value in assay [2] is “− (− indicates ≦ 10−fold)”.

`CCOC(=O)N1CCN(c2nc(C(C)c3ccccc3C)nc3ccccc23)CC1` (stereo not shown) [Example 338, Ethyl 4-(2-(1-o-tolylethyl)quinazolin-4-yl)piperazine-1-carboxylate]: the concentration for a half-maximal effect (EC50) in assay [1] (setting [3]) was greater than 1000 nM. Moreover, the “Selectivity, CB2 vs. CB1” value in assay [2] is given as “+ (+ indicates > 10−fold)”.

Regarding `Fc1ccccc1-c1nc(N2CCCCC2)c2ccccc2n1` [Example 150, 2-(2-Fluorophenyl)-4-piperidin-1-ylquinazoline], the EC50 in assay [1] (setting [3]) is less than 1000 nM. In assay [2], the “Selectivity, CB2 vs. CB1” value is “− (− indicates ≦ 10−fold)”.

With `COC(=O)c1ccc2nc(-c3ccccc3Cl)nc(N3CCN(C)CC3)c2c1` [Example 310, Methyl 2-(2-chlorophenyl)-4-(4-methylpiperazin-1-yl)quinazoline-6-carboxylate], in assay [1] (setting [3]), the EC50 is less than 1000 nM. In assay [2], the “Selectivity, CB2 vs. CB1” value is reported as “− (− indicates ≦ 10−fold)”.

As for `Clc1ccc(-c2nc(N3CCCCC3)c3ccccc3n2)c(Cl)c1` [Example 29, 2-(2,4-Dichlorophenyl)-4-piperidin-1-ylquinazoline], the EC50 in assay [1] (setting [3]) was less than 1000 nM. For the same molecule, the “Selectivity, CB2 vs. CB1” value in assay [2] is listed as “+ (+ indicates > 10−fold)”.

As to `CC(C)(C)CCNc1nc(-c2ccccc2Cl)nc2ccccc12` [Example 189, 2-(2-Chlorophenyl)-N-(3,3-dimethylbutyl)quinazolin-4-amine], in assay [1] (setting [3]), the EC50 is greater than 1000 nM. For the same molecule, in assay [2], the “Selectivity, CB2 vs. CB1” value is “− (− indicates ≦ 10−fold)”.

As to `Clc1ccccc1-c1nc(NCC2CC2)c2ccccc2n1` [Example 56, 2-(2-Chlorophenyl)-N-(cyclopropylmethyl)quinazolin-4-amine], the EC50 in assay [1] (setting [3]) is greater than 1000 nM. In assay [2], the “Selectivity, CB2 vs. CB1” value was “− (− indicates ≦ 10−fold)”.

As to `c1ccc(-c2nc(N3CCCCC3)c3ccccc3n2)cc1` [Example 52, 2-Phenyl-4-(piperidin-1-yl)quinazoline], the EC50 in assay [1] (setting [3]) is greater than 1000 nM. For the same molecule, the “Selectivity, CB2 vs. CB1” value in assay [2] is listed as “− (− indicates ≦ 10−fold)”.

Take `CC(C)(C)c1ccc(-c2nc(N3CCCC3)c3cc(Cl)ccc3n2)cc1` [Example 278, 2-(4-tert-Butylphenyl)-6-chloro-4-(pyrrolidin-1-yl)quinazoline]: in assay [1] (setting [3]), the EC50 is less than 1000 nM. Further, the “Selectivity, CB2 vs. CB1” value in assay [2] is on record as “− (− indicates ≦ 10−fold)”.

Take `Clc1ccc2c(N3CCCC3)nc(C3CCCCC3)nc2c1` [Example 160, 7-Chloro-2-cyclohexyl-4-(pyrrolidin-1-yl)quinazoline]: the EC50 in assay [1] (setting [3]) was less than 1000 nM. Also, in assay [2], the “Selectivity, CB2 vs. CB1” value is “− (− indicates ≦ 10−fold)”.

As for `CC(=O)N1CCN(c2nc(-c3ccccc3Cl)nc3ccccc23)CC1` [Example 99, 1-(4-(2-(2-Chlorophenyl)quinazolin-4-yl)piperazin-1-yl)ethanone], the EC50 in assay [1] (setting [3]) was less than 1000 nM. Further, the “Selectivity, CB2 vs. CB1” value in assay [2] was “+ (+ indicates > 10−fold)”.

The record behind these values is US20090209536A1, “AMINOQUINAZOLINE CANNABINOID RECEPTOR MODULATORS FOR TREATMENT OF DISEASE” (KALYPSYS, INC., priority 2007, published 2009).
